According to patent US12116424B2, “Compounds and compositions for modulating Listeria virulence” (priority 2021, dated 2024):
Read-outs that look alike come from different tables or passages of the source. Where a SMILES comes first, the peptide text is derived from it. Bridges are numbered along the chain shown (N, C = ends). [ ]: non-standard residue; d: D form.

Molecular target: L. monocytogenes AgrC (Listeria monocytogenes serovar 1/2a, UniProt Q8YAR5)
Assay: Fluorescence (agr-GFP) reporter agonism assay, ΔagrD reporter strain
Format: cell-based
Set-up: Emax: dose or concentration left out as unconfirmed
Details: for loss in potency: relative to native AIP
Source text: Construction of Listeria agr Reporter Strains. A gene block was designed and purchased from Integrated DNA Technologies to contain an EagI recognition site, the PII promoter of the agr system, the 3′ UTR of hly, super folder GFP, and a SaII recognition site. The gene block was digested with EagI and SaII, cloned into an EagI/SaII-cut pAM401 plasmid resulting in the plasmid pAM401-KW1, and then transformed into E. coli XL1-Blue competent cells. The insertion into pAM401 was confirmed using Kapa polymerase and primers DAP337 and DAP338, and additional confirmation via commercial sequencing. Purified plasmid was transformed into the conjugative E. coli S17 strain, which was used to conjugate to EGD-e and EGD-e ΔagrD to generate the agr-GFP reporter strains EGD-e:pAM401-KW1 and EGD-e ΔagrD:pAM401-KW1. Conjugation was verified using primers DAP337 and DAP338.
Fluorescence reporter assay protocol. For QS (agr) reporter assays, peptide stock solutions in DMSO (1 mM) were serially diluted in DMSO, and 2 μL of solution was added to each well in a black 96-well plate (polystyrene microtiter plate, Costar). Agonism assays utilized the ΔagrD reporter strain, with 2 μL of 100 μM AIP (final concentration 1 μM) as a positive control and 2 μL of DMSO as a negative control. Antagonism assays utilized the EGD-e reporter strain, with 2 μL of DMSO as a positive control. In both assays, wells containing only BHI media served as negative controls for normalization. An overnight culture of bacteria was diluted 1:50 in fresh BHI, then 198 μL were transferred to each well (excluding the media control wells). Plates were then incubated at 37° C. for 24 hours with shaking at 200 rpm. Fluorescence of GFP (excitation at 500 nm, emission at 540 nm) and OD600 of each well was measured using BioTek Synergy 2 plate reader. Measurements were processed by subtracting background fluorescence (BHI media), correcting by OD600, and the normalizing using the 1 μM AIP or the DMSO control for the agonism and antagonism assays, respectively. Non-linear regression curves were fitted to the data sets in GraphPad Prism 7 by using variable slope (four-parameter) dose-response analysis to obtain potency, efficacy, and statistical information about the activity of tested peptides. Each peptide was tested with three technical replicates and three biological replicates. All data derived from fluorescent reporter strains are represented with data points signifying the mean and error bars signifying the standard deviation from all replicates.
Preparation and Validation of Listeria agr Reporter Strains. In order to facilitate profiling the native AIP and its analogs for agr activity, L. monocytogenes agr GFP reporters were designed and constructed as described above (see Materials and General Methods). Briefly, a plasmid containing the agr promoter region upstream of gfp was transformed into wild-type (EGD-e) and ΔagrD L. monocytogenes strains. The wild-type reporter naturally produces its own AIP and is able to activate AgrC, which may subsequently phosphorylate AgrA for productive binding to DNA and triggering the production of GFP (FIG. 1A). The ΔagrD reporter, lacking the ability to produce its own AIP and thereby activate AgrC, is unable to trigger substantial production of GFP. However, adding exogenous AIP to the ΔagrD reporter results in an increase of fluorescence, indicating agr activity has been restored.

[1] = read-out: Max Activation Observed

Sequence of L. monocytogenes AgrC (Q8YAR5 entry or part of it): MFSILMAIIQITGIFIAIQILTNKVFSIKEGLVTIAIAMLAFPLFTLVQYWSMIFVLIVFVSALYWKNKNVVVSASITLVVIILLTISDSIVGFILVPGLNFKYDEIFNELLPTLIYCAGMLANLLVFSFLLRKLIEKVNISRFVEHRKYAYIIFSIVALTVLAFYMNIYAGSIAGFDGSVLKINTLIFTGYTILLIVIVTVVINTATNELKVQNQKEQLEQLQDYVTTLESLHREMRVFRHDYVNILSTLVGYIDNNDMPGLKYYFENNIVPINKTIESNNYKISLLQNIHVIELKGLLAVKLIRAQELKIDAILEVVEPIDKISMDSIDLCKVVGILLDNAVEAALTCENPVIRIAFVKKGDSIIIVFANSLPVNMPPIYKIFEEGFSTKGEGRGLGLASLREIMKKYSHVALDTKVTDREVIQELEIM

Structure (SMILES) | Emax (read-out: Max Activation) [%] | further results
CSCC[C@@H]1NC(=O)[C@H](Cc2ccccc2)NC(=O)[C@@H](NC(=O)[C@H](C)N)CSC(=O)[C@H](C(C)C)NC(=O)[C@@H](Cc2ccccc2)NC1=O [AIP F5dF, A-(C-F-M-dF-V)] (H-ACFM[dF]V; thioester 2-C; N-terminus assumed) | – | loss in potency (agonism): two orders of magnitude; Emax [1]: 72.3%; agonism activity (in words) (ΔagrD reporter): maintain some agonism activity
CC(C)[C@@H]1NC(=O)[C@H](Cc2ccccc2)NC(=O)[C@H](C)NC(=O)[C@H](Cc2ccccc2)NC(=O)[C@@H](NC(=O)[C@H](C)N)CSC1=O [AIP M4A, A-(C-F-A-F-V)] (H-ACFAFV; thioester 2-C; N-terminus assumed) | – | Emax [1]: 53.5%; EC50 (in words) (ΔagrD reporter): low micromolar range; agonism activity (in words) (ΔagrD reporter): decreased potency and agonism compared to the native AIP
CC(C)[C@@H]1NC(=O)[C@H](Cc2ccccc2)NC(=O)[C@@H](C)NC(=O)[C@H](Cc2ccccc2)NC(=O)[C@@H](NC(=O)[C@H](C)N)CSC1=O [AIP M4dA, A-(C-F-dA-F-V)] (H-ACF[dA]FV; thioester 2-C; N-terminus assumed) | – | improved potency (agonism, relative to AIP M4A): about four-fold; Emax [1]: 82%
CSCC[C@@H]1NC(=O)[C@H](Cc2ccccc2)NC(=O)[C@@H](NC(=O)[C@H](C)N)CSC(=O)[C@H](C)NC(=O)[C@H](Cc2ccccc2)NC1=O [AIP V6A, A-(C-F-M-F-A)] (H-ACFMFA; thioester 2-C; N-terminus assumed) | 69 | Emax [1]: 69%; agonism activity (in words) (ΔagrD reporter): decreased potency and agonism compared to the native AIP
CSCC[C@@H]1NC(=O)[C@H](Cc2ccccc2)NC(=O)[C@@H](NC(=O)[C@H](C)N)CSC(=O)[C@@H](C(C)C)NC(=O)[C@H](Cc2ccccc2)NC1=O [AIP V6dV, A-(C-F-M-F-dV)] (H-ACFMF[dV]; thioester 2-C; N-terminus assumed) | – | Emax [1]: 72.9%
CSCC[C@@H]1NC(=O)[C@H](Cc2ccccc2)NC(=O)[C@@H](NC(C)=O)CSC(=O)[C@H](C(C)C)NC(=O)[C@H](Cc2ccccc2)NC1=O [Ac-5-mer, Ac-(C-F-M-F-V)] (Ac-CFMFV; thioester 1-C) | 75.3 | –
CSCC[C@@H]1NC(=O)[C@H](Cc2ccccc2)NC(=O)[C@@H](N)CSC(=O)[C@H](C(C)C)NC(=O)[C@H](Cc2ccccc2)NC1=O [Compound 5-mer, (C-F-M-F-V)] (H-CFMFV; thioester 1-C) | 110 | loss in potency (agonism): ten-fold; agonism activity (in words) (ΔagrD reporter): fully maintained its agonism activity
CSCC[C@@H]1NC(=O)[C@H](Cc2ccccc2)NC(=O)[C@@H](NC(=O)[C@H](C)NC(=O)[C@@H](N)CCCCN)CSC(=O)[C@H](C(C)C)NC(=O)[C@H](Cc2ccccc2)NC1=O [Compound 7-mer, K-A-(C-F-M-F-V)] (H-KACFMFV; thioester 3-C; N-terminus assumed) | 64.6 | –
CSCC[C@@H]1NC(=O)[C@H](Cc2ccccc2)NC(=O)[C@@H](NC(=O)[C@H](C)NC(=O)[C@H](CCCCN)NC(=O)[C@@H](N)CO)CSC(=O)[C@H](C(C)C)NC(=O)[C@H](Cc2ccccc2)NC1=O [Compound 8-mer, S-K-A-(C-F-M-F-V)] (H-SKACFMFV; thioester 4-C; N-terminus assumed) | 71.5 | –
CSCC[C@@H]1NC(=O)[C@H](Cc2ccccc2)NC(=O)[C@@H](NC(=O)[C@H](C)NC(=O)[C@H](CCCCN)NC(=O)[C@H](CO)NC(=O)[C@@H](N)CCSC)CSC(=O)[C@H](C(C)C)NC(=O)[C@H](Cc2ccccc2)NC1=O [Compound 9-mer, M-S-K-A-(C-F-M-F-V)] (H-MSKACFMFV; thioester 5-C; N-terminus assumed) | 93.6 | –
CSCC[C@@H]1NC(=O)[C@H](Cc2ccccc2)NC(=O)[C@@H](NC(=O)[C@H](C)NC(=O)[C@H](CCCCN)NC(=O)[C@H](CO)NC(=O)[C@H](CCSC)NC(=O)[C@@H](N)CO)CSC(=O)[C@H](C(C)C)NC(=O)[C@H](Cc2ccccc2)NC1=O [Compound 10-mer, S-M-S-K-A-(C-F-M-F-V)] (H-SMSKACFMFV; thioester 6-C; N-terminus assumed) | 110 | –
CSCC[C@@H]1NC(=O)[C@H](Cc2ccccc2)NC(=O)[C@@H](NC(=O)[C@H](C)NC(=O)[C@H](CCCCN)NC(=O)[C@H](CO)NC(=O)[C@H](CCSC)NC(=O)[C@H](CO)NC(=O)[C@@H](N)CO)CSC(=O)[C@H](C(C)C)NC(=O)[C@H](Cc2ccccc2)NC1=O [Compound 11-mer, S-S-M-S-K-A-(C-F-M-F-V)] (H-SSMSKACFMFV; thioester 7-C; N-terminus assumed) | 111 | –
CSCC[C@H](NC(=O)[C@H](CO)NC(=O)[C@H](CO)NC(=O)[C@@H](N)CC(=O)O)C(=O)N[C@@H](CO)C(=O)N[C@@H](CCCCN)C(=O)N[C@@H](C)C(=O)N[C@H]1CSC(=O)[C@H](C(C)C)NC(=O)[C@H](Cc2ccccc2)NC(=O)[C@H](CCSC)NC(=O)[C@H](Cc2ccccc2)NC1=O [Compound 12-mer, D-S-S-M-S-K-A-(C-F-M-F-V)] (H-DSSMSKACFMFV; thioester 8-C; N-terminus assumed) | 116 | –
CSCC[C@H](NC(=O)[C@H](CO)NC(=O)[C@H](CO)NC(=O)[C@H](CC(=O)O)NC(=O)[C@H](C)N)C(=O)N[C@@H](CO)C(=O)N[C@@H](CCCCN)C(=O)N[C@@H](C)C(=O)N[C@H]1CSC(=O)[C@H](C(C)C)NC(=O)[C@H](Cc2ccccc2)NC(=O)[C@H](CCSC)NC(=O)[C@H](Cc2ccccc2)NC1=O [Compound 13-mer, A-D-S-S-M-S-K-A-(C-F-M-F-V)] (H-ADSSMSKACFMFV; thioester 9-C; N-terminus assumed) | 108 | –
CSCC[C@H](NC(=O)[C@H](CO)NC(=O)[C@H](CO)NC(=O)[C@H](CC(=O)O)NC(=O)[C@H](C)NC(=O)[C@@H](N)C(C)C)C(=O)N[C@@H](CO)C(=O)N[C@@H](CCCCN)C(=O)N[C@@H](C)C(=O)N[C@H]1CSC(=O)[C@H](C(C)C)NC(=O)[C@H](Cc2ccccc2)NC(=O)[C@H](CCSC)NC(=O)[C@H](Cc2ccccc2)NC1=O [Compound 14-mcr, V-A-D-S-S-M-S-K-A-(C-F-M-F-V)] (H-VADSSMSKACFMFV; thioester 10-C; N-terminus assumed) | 105 | –
CSCC[C@H](NC(=O)[C@H](CO)NC(=O)[C@H](CO)NC(=O)[C@H](CC(=O)O)NC(=O)[C@H](C)NC(=O)[C@@H](NC(=O)[C@@H](N)CCCCN)C(C)C)C(=O)N[C@@H](CO)C(=O)N[C@@H](CCCCN)C(=O)N[C@@H](C)C(=O)N[C@H]1CSC(=O)[C@H](C(C)C)NC(=O)[C@H](Cc2ccccc2)NC(=O)[C@H](CCSC)NC(=O)[C@H](Cc2ccccc2)NC1=O [Compound 15-mer, K-V-A-D-S-S-M-S-K-A-(C-F-M-F-V)] (H-KVADSSMSKACFMFV; thioester 11-C; N-terminus assumed) | 122 | –
CC(=O)N[C@H]1CSC(=O)[C@H](C(C)C)NC(=O)[C@H](Cc2ccccc2)NC(=O)CNC(=O)[C@H](C(C)C)NC1=O [L. grandensis tr AIP, Ac-(C-V-G-F-V), reference compound] (Ac-CVGFV; thioester 1-C) | 10.1 | –
CSCC[C@@H]1NC(=O)[C@H](CO)NC(=O)[C@@H](NC(=O)[C@H](C)N)CSC(=O)[C@H](C)NC(=O)[C@H](Cc2ccccc2)NC1=O [L. grayi AIP, A-(C-S-M-F-A), reference compound] (H-ACSMFA; thioester 2-C; N-terminus assumed) | 10.7 | –
CC(C)C[C@@H]1NC(=O)CNC(=O)[C@H](C(C)C)NC(=O)[C@@H](NC(=O)[C@@H](N)CO)CSC(=O)[C@H](CO)NC1=O [L. kieliensis AIP, S-(C-V-G-L-S), reference compound] (H-SCVGLS; thioester 2-C; N-terminus assumed) | 10.4 | –
CC[C@H](C)[C@@H]1NC(=O)[C@H](CC(C)C)NC(=O)[C@H](Cc2ccccc2)NC(=O)[C@@H](NC(=O)[C@@H](N)CO)CSC(=O)[C@H](Cc2ccccc2)NC1=O [L. newyorkensis AIP, S-(C-F-L-I-F), reference compound] (H-SCFLIF; thioester 2-C; N-terminus assumed) | 23.6 | agonism or antagonism activity compared to vehicle (FIG. 1B) (10 μM, wild-type reporter or ΔagrD reporter): minimal efficacy
